Each molecule was assayed on SH-SY5Y cells (assay: Cell viability assay (MTS reduction) against 4-Br-A23187 challenge). Details: Homo sapiens, SH-SY5Y, compound 10 nM, 4-Br-A23187 (2 μM) for 24 h, Control = 100, Vehicle = 0, read-out: Relative Cytoprotective capacity.
Type: cell-based
Protocol: SH-SY5Y cells cultured in DMEM/F12 media supplemented with 10% FBS were seeded in 96-well microplates at 150,000 cells/cm^2. After 24 h, cells were depleted from FBS and kept in culture for 24 h before the experiment. A stock solution was prepared by dissolving the calcium ionophore 4-Br-A23187 (Calbiochem Cat. N^o 100107) in DMSO at 25 mM. Cells were then treated with 4-Br-A23187 (2 μM), hydrogen peroxide (300 μM) or the mitochondrial toxin rotenone (25 μM) in the presence of vehicle or Compound of the Invention for 24 h. Cell death was determined by measurements of LDH release according to the Cytotoxicity Detection KitPlus (Roche, Mannheim, Germany). Cell viability was determined by measuring the capacity of cells to metabolize MTS tetrazolium (MTS) according to the Cytotoxicity Detection KitPlus (Roche, Mannheim, Germany) and MTS reduction was assessed by the CellTiter 96® AQueous One Solution Cell Proliferation assay (Promega Corporation, Madison, Wis., USA). Compounds were screened at 10 nM, using DMSO as vehicle. Assay results for the experiments with Br-A23187 were presented as the MTS reduction capacity (cell viability) of untreated cells (control), 4-Br-A23187-treated cells (vehicle), and co-incubation of Br-A23187 with Compounds of the Invention treated cells and using […] (FCCP) at 10 μM for 30 min as a control. This assay assesses the ability of the test compounds to protect against cell death that was mediated by mitochondrial dysfunction. In the assay, the calcium ionophore 4-Br-A23187 was used to challenge the cells, causing calcium levels to rise in mitochondria, which leads to depolarization and cell death. Test compounds were assessed for their ability to prevent cell death in response to challenge with 4-Br-A23187.

Compound	viability at 0.01 µM [%]
Cc1ccc2c(c1)c1c3n2CC(c2ccncc2)OC(C)CC3(C)CN(C)C1 (stereo not shown) [D8]	73.1
Cc1cc(CCc2ccc(C)nc2)c2[nH]c3c(c2c1)CN(C)CC3 [A2]	-4.41
Cc1ccc2c(c1)c1c3n2CC(C)(c2ccncc2)OC(C)CC3(C)CN(C)C1 (stereo not shown) [D9]	81.1
CN1CCc2[nH]c3c(N(C)Cc4ccccc4)cccc3c2C1 [A1]	-1.1
CN1CCc2[nH]c3c(NCc4ccccc4)cccc3c2C1 [A3]	35.1

Same assay, conditions: compound 10 nM, 4-Br-A23187 (2 μM) for 24 h, Control = 100, Vehicle = 0

Compound	Relative Cytoprotective capacity
Cc1ccc2[nH]c3c(c2c1)CN(C)CC3(C)CCc1ccc(C)nc1 (stereo not shown) [C46]	−0.04527
Cc1ccc2c(c1)c1c(n2C)C(C)(CCc2ccc(C)nc2)CN(C)C1 (stereo not shown) [C45]	4.348
Cc1ccc2c(c1)c1c(n2C)C(C)(CCc2nc(-c3ccccc3)cs2)CN(C)C1 (stereo not shown) [C48]	52.14
Cc1ccc2c(c1)c1c(n2C)C(C)(CCc2ccccc2)CN(C)C1 (stereo not shown) [C44]	−0.6342

These molecules were tested on New Zealand White rabbits (assay: not given). Details: conscious rabbits, intravenous cumulative doses, positive control.

Compound	maximum drop of arterial blood pressure [mmHg]
Clc1cccc(Cl)c1N=C1NCCN1 [Clonidine]	−6
